What was measured:
Assay type in all cases: cell-based, human
Details in all cases: 96 h
[1] = test system: DU145; test: Synergistic cytotoxicity test (MTS), DU145
Method: (§1) Containing 10% bovine fetal serum, 1 mM of sodium pyruvate, 2 mM of L-glutamine, 50 U/mL of penicillin, 50 μg/ mL of streptomycin.
(§2) Human tumor cells: du145-human prostate cancer; MCF-7-human breast cancer; SK0V3-human ovarian carcinoma, HT-29-human colon cancer; A549-human non-small cell lung cancer (adenocarcinoma), H460-human non-small cell lung cancer (large cell carcinoma), and animal tumor cells: L1210-mice leukemia cells used in the following activity test experiments were all purchased from Shanghai An Yan Commercial Trade Co., Ltd.
(§3) MTS test method was used in cytotoxicity assay. The tumor cells of logarithmic phase were collected, and then the concentration of cell suspension was adjusted, 100 μL of the cell suspension was added to each well, the cells were placed at 1000-10000 cells/well (edge well filled with sterile PBS). Cells were incubated at 37° C. with 5% CO2 to make cell monolayer overspread the bottom of each well (96-well flat-bottomed microplate). 100 μL of certain concentration solution of a mixture of the fluorine-containing water-soluble platinum complex with other antitumor agents was added to each well. Each condition was measured in five replicates. The microplate was incubated at 37° C. with 5% CO2 for 96 h and checked with inverted microscope. MTS working reagent: To 2 mL of MTS (2 mg/mL, prepared by DPBS) was added 100 μL of PMS (1 mg/mL, prepared by DPBS). The cell culture medium was discarded after centrifugation, the cell culture plate was carefully washed 2-3 times with PBS. Before detecting the absorbance value (OD), to each sample containing well was added 100 μL of cell culture medium, then 20 μL of MTS working reagent was added. After incubation at 37° C. with 5% CO2 for 2 h, the OD (optical density) value was detected at 490 nm.
(§4) Each of above experiment was repeated five times, and the cell viability was calculated according to the mean OD values.
(§5) Cell Viability (%)=(treated group OD value/control group OD value)×100
(§6) Control group: the conditions are the same as the above without adding the tested drug mixture (100 μL of culture medium was added in stead), and finally the absorbance was measured at 490 nm to obtain the OD value of the tumor cells.
(§7) Drug Group-1: only the fluorine-containing water-soluble platinum complex was added under the above conditions to obtain cell viability of tumor cells.
(§8) Drug Group-2: only the other chemotherapeutic drug (active ingredient) was added under the above conditions to obtain cell viability of tumor cells.
(§9) Drug Combination Group: the fluorine-containing water-soluble platinum complex and other chemotherapeutic drugs were added simultaneously under the above conditions to obtain cell viability of tumor cell. (2) Evaluation Method:
(§10) When the fluorine-containing water-soluble platinum complexes used in combination with other chemotherapy drugs, the inhibition effect on cancer cell proliferation is enhanced or synergistic, and the effect was calculated using the following formula:
(§11) Combination Effect (%)={[(A1-X)+(A2-X)]/(A1-A2)|}×100
(§12) wherein, A1 is the cell viability of drug group-1, A2 is the cell viability of drug group-2, X is the cell viability of drug combination group, (A1-A2)| is the absolute value of the cell viability difference between the two groups.
(§13) Calculated according to the above formula, when the results of [Combination Effect (%)]>+100%, that means the effect of inhibition on cell proliferation is enhanced or synergistic (3) Experimental Result: […]

[2] = test system: MCF7; test: Synergistic cytotoxicity test (MTS), MCF7
Method: as §1, §2, §3, §4, §5, §6, §7, §8, §9, §10, §11, §12, §13

[3] = test system: SK0V3; test: Synergistic cytotoxicity test (MTS), SKOV3
Method: as §1, §2, §3, §4, §5, §6, §7, §8, §9, §10, §11, §12, §13

[4] = test system: A549; test: Synergistic cytotoxicity test (MTS), A549
Method: as §1, §2, §3, §4, §5, §6, §7, §8, §9, §10, §11, §12, §13

[5] = test system: H460; test: Synergistic cytotoxicity test (MTS), H460
Method: as §1, §2, §3, §4, §5, §6, §7, §8, §9, §10, §11, §12, §13

[6] = test system: HT29; test: Synergistic cytotoxicity test (MTS), HT29
Method: as §1, §2, §3, §4, §5, §6, §7, §8, §9, §10, §11, §12, §13

[7] = other chemotherapy drug (at its listed dosage) combined with Complex 2 (dosage: 1 μM)
[8] = other chemotherapy drug (at its listed dosage) combined with Complex 3 (dosage: 1 μM)
[9] = other chemotherapy drug (at its listed dosage) combined with Complex 5 (dosage: 1 μM)
[10] = other chemotherapy drug (at its listed dosage) combined with Complex 6 (dosage: 1 μM)
[11] = other chemotherapy drug (at its listed dosage) combined with Complex 2 (dosage: 1 μM), SLOV3
[12] = other chemotherapy drug (at its listed dosage) combined with Complex 3 (dosage: 1 μM), SlOV3
[13] = other chemotherapy drug (at its listed dosage) combined with Complex 5 (dosage: 1 μM), SLOV3
[14] = other chemotherapy drug (at its listed dosage) combined with Complex 6 (dosage: 1 μM), SLOV3

Row | SMILES | the effect of drug combination (Combination Effect) [1, 7] | the effect of drug combination (Combination Effect) [1, 8] | the effect of drug combination (Combination Effect) [1, 9] | the effect of drug combination (Combination Effect) [1, 10] | the effect of drug combination (Combination Effect) [2, 7] | the effect of drug combination (Combination Effect) [2, 8] | the effect of drug combination (Combination Effect) [2, 9] | the effect of drug combination (Combination Effect) [2, 10] | the effect of drug combination (Combination Effect) [3, 11] | the effect of drug combination (Combination Effect) [3, 12] | the effect of drug combination (Combination Effect) [3, 13] | the effect of drug combination (Combination Effect) [3, 14] | the effect of drug combination (Combination Effect) [4, 7] | the effect of drug combination (Combination Effect) [4, 8] | the effect of drug combination (Combination Effect) [5, 9] | the effect of drug combination (Combination Effect) [5, 10] | the effect of drug combination (Combination Effect) [6, 7] | the effect of drug combination (Combination Effect) [6, 8] | the effect of drug combination (Combination Effect) [6, 9] | the effect of drug combination (Combination Effect) [6, 10]
1 | CCc1c2c(nc3ccc(OC(=O)N4CCC(N5CCCCC5)CC4)cc13)-c1cc3c(c(=O)n1C2)COC(=O)[C@]3(O)CC [Irinotecan] | ○ (○ represents: 100% < the effect of drug combination < 300%) | ○ (○ represents: 100% < the effect of drug combination < 300%) | ○ (○ represents: 100% < the effect of drug combination < 300%) | ○ (○ represents: 100% < the effect of drug combination < 300%) | ○ (○ represents: 100% < the effect of drug combination < 300%) | ○ (○ represents: 100% < the effect of drug combination < 300%) | ○ (○ represents: 100% < the effect of drug combination < 300%) | ○ (○ represents: 100% < the effect of drug combination < 300%) | ⊚ (⊚ represents the effect of drug combination > 300%) | ⊚ (⊚ represents the effect of drug combination > 300%) | ⊚ (⊚ represents the effect of drug combination > 300%) | ⊚ (⊚ represents the effect of drug combination > 300%) | ⊚ (⊚ represents the effect of drug combination > 300%) | ⊚ (⊚ represents the effect of drug combination > 300%) | ⊚ (⊚ represents the effect of drug combination > 300%) | ⊚ (⊚ represents the effect of drug combination > 300%) | ⊚ (⊚ represents the effect of drug combination > 300%) | ⊚ (⊚ represents the effect of drug combination > 300%) | ⊚ (⊚ represents the effect of drug combination > 300%) | ⊚ (⊚ represents the effect of drug combination > 300%)
2 | CC(=O)O[C@H]1C(=O)[C@@]2(C)[C@H]([C@H](OC(=O)c3ccccc3)[C@]3(O)C[C@H](OC(=O)[C@H](O)[C@@H](NC(=O)c4ccccc4)c4ccccc4)C(C)=C1C3(C)C)[C@]1(OC(C)=O)CO[C@@H]1C[C@@H]2O [Paclitaxel] | ○ (○ represents: 100% < the effect of drug combination < 300%) | ⊚ (⊚ represents the effect of drug combination > 300%) | ⊚ (⊚ represents the effect of drug combination > 300%) | ⊚ (⊚ represents the effect of drug combination > 300%) | ⊚ (⊚ represents the effect of drug combination > 300%) | ⊚ (⊚ represents the effect of drug combination > 300%) | ⊚ (⊚ represents the effect of drug combination > 300%) | ⊚ (⊚ represents the effect of drug combination > 300%) | ⊚ (⊚ represents the effect of drug combination > 300%) | ⊚ (⊚ represents the effect of drug combination > 300%) | ⊚ (⊚ represents the effect of drug combination > 300%) | ⊚ (⊚ represents the effect of drug combination > 300%) | ⊚ (⊚ represents the effect of drug combination > 300%) | ⊚ (⊚ represents the effect of drug combination > 300%) | ⊚ (⊚ represents the effect of drug combination > 300%) | ⊚ (⊚ represents the effect of drug combination > 300%) | ⊚ (⊚ represents the effect of drug combination > 300%) | ⊚ (⊚ represents the effect of drug combination > 300%) | ⊚ (⊚ represents the effect of drug combination > 300%) | ○ (○ represents: 100% < the effect of drug combination < 300%)
3 | C#Cc1cccc(Nc2ncnc3cc(OCCOC)c(OCCOC)cc23)c1 [Tarceva] | ○ (○ represents: 100% < the effect of drug combination < 300%) | ○ (○ represents: 100% < the effect of drug combination < 300%) | ○ (○ represents: 100% < the effect of drug combination < 300%) | ○ (○ represents: 100% < the effect of drug combination < 300%) | ○ (○ represents: 100% < the effect of drug combination < 300%) | ○ (○ represents: 100% < the effect of drug combination < 300%) | ○ (○ represents: 100% < the effect of drug combination < 300%) | ○ (○ represents: 100% < the effect of drug combination < 300%) | ○ (○ represents: 100% < the effect of drug combination < 300%) | ○ (○ represents: 100% < the effect of drug combination < 300%) | ○ (○ represents: 100% < the effect of drug combination < 300%) | ○ (○ represents: 100% < the effect of drug combination < 300%) | ⊚ (⊚ represents the effect of drug combination > 300%) | ⊚ (⊚ represents the effect of drug combination > 300%) | ⊚ (⊚ represents the effect of drug combination > 300%) | ⊚ (⊚ represents the effect of drug combination > 300%) | ⊚ (⊚ represents the effect of drug combination > 300%) | ⊚ (⊚ represents the effect of drug combination > 300%) | ⊚ (⊚ represents the effect of drug combination > 300%) | ⊚ (⊚ represents the effect of drug combination > 300%)
